Experimental data reported in patent publication US12091425B2 (AMGEN INC., priority 2016, dated 2024).

These compounds were tested against T1, Mcl-1/Bim interaction, recombinant human Mcl-1 (171-327) (Homo sapiens, UniProt Q07820) (assay: Cell free Mcl-1: Bim Affinity Assay (Mcl-1 HTRF)). Settings: TR-FRET, 0.1 nM Mcl-1 (171-327), 0.05 nM biotin-Bim (51-76).
T1 construct: made in house
Type: binding
Summary of the method: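 TR-FRET competition assay with biotinylated human Bim peptide (residues 51-76); reaction plates incubated overnight before reading. IC50 values came from duplicate data fitted to a four-parameter sigmoidal competition curve.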

T1 sequence (Q07820 171-327): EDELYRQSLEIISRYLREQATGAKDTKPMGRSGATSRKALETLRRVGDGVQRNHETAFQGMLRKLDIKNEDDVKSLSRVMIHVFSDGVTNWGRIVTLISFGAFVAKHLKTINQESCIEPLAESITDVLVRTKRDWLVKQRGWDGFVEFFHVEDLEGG

Going from `O=C1NS(=O)(=O)[C@H]2C[C@@H](/C=C/[C@H](O)[C@@H]3CC[C@H]3CN3C[C@@]4(CCCc5cc(Cl)ccc54)COc4ccc1cc43)C2` [Example 100, (1S,3′R,6′R,7′S,8′E,10′S,12′R)-6-chloro-7′-hydroxy-3,4-dihydro-2H,15′H-spiro[naphthalene-1,22′-[20]oxa[13]thia[1,14]diazapentacyclo[14.7.2.1^10,12.0^3,6.0^19,24]hexacosa[8,16,18,24]tetraen]-15′-one 13′,13′-dioxide] to `O=C1NS(=O)(=O)[C@H]2C[C@H](CC[C@H](O)[C@@H]3CC[C@H]3CN3C[C@@]4(CCCc5cc(Cl)ccc54)COc4ccc1cc43)C2` [Example 103, (1S,3′R,6′R,7′S,10′R,12′R)-6-chloro-7′-hydroxy-3,4-dihydro-2H,15′H-spiro[naphthalene-1,22′-[20]oxa[13]thia[1,14]diazapentacyclo[14.7.2.1^10,120^3,6.0^19,24]hexacosa[16,18,24]trien]-15′-one 13′,13′-dioxide], the IC50 falls from 2.45 nM to 1.43 nM (1.7-fold). The second is the more potent here.

Compared with `C[C@@H]1[C@@H](C)C[C@H](CCN2CCOCC2)/C=C/[C@@H]2CC[C@H]2CN2C[C@@]3(CCCc4cc(Cl)ccc43)COc3ccc(cc32)C(=O)NS1(=O)=O` [Example 115, (1S,3′R,6′S,7′E,9′R,11′S,12′R)-6-chloro-11′,12′-dimethyl-9′-(2-(4-morpholinyl)ethyl)-3,4-dihydro-2H,15′H-spiro[naphthalene-1,22′-[20]oxa[13]thia[1,14]diazatetracyclo[14.7.2.0^3,6.0^19,24]pentacosa[7,16,18,24]tetraen]-15′-one 13′,13′-dioxide], `COCCO[C@H]1/C=C/CC[C@@H](C)S(=O)(=O)NC(=O)c2ccc3c(c2)N(C[C@@H]2CC[C@H]21)C[C@@]1(CCCc2cc(Cl)ccc21)CO3` [Example 405, (1S,3′R,6′R,7′S,8′E,12′R)-6-chloro-7′-(2-methoxyethoxy)-12′-methyl-3,4-dihydro-2H,15′H-spiro[naphthalene-1,22′-[20]oxa[13]thia[1,14]diazatetracyclo[14.7.2.0^3,6.0^19,24]pentacosa [8,16,18,24]tetraen]-15′-one 13′,13′-dioxide] is 5-fold lower in IC50: 2.71 nM for the first, 0.543 nM for the second.

`COC(=O)C1CCN(C(=O)[C@H]2CC/C=C\[C@H](O)[C@@H]3CC[C@H]3CN3C[C@@]4(CCCc5cc(Cl)ccc54)COc4ccc(cc43)C(=O)NS2(=O)=O)CC1` [Example 143] and `COC[C@H]1CC/C=C/[C@H](O)[C@@H]2CC[C@H]2CN2C[C@@]3(CCCc4cc(Cl)ccc43)COc3ccc(cc32)C(=O)NS1(=O)=O` [Example 435, (1S,3′R,6′R,7′S,8′E,12′R)-6-chloro-7′-hydroxy-12′-(methoxymethyl)-3,4-dihydro-2H,15′H-spiro[naphthalene-1,22′-[20]oxa[13]thia[1,14]diazatetracyclo[14.7.2.0^3,6.0^19,24]pentacosa [8,16,18,24]tetraen]-15′-one 13′,13′-dioxide] are within 1.5-fold of each other in IC50: 2 nM for the first, 2.56 nM for the second.

Going from `O=C1NS(=O)(=O)CC[C@H](CO)/C=C/[C@H](O)[C@@H]2CC[C@H]2CN2C[C@@]3(CCCc4cc(Cl)ccc43)COc3ccc1cc32` [Example 201, (1S,3′R,6′R,7′S,8′E,10′S)-6-chloro-7′-hydroxy-10′-(hydroxymethyl)-3,4-dihydro-2H,15′H-spiro[naphthalene-1,22′-[20]oxa[13]thia[1,14]diazatetracyclo[14.7.2.0^3,6.0^19,24]pentacosa [8,16,18,24]tetraen]-15′-one 13′,13′-dioxide] to `O=C1NS(=O)(=O)C/C=C/[C@H](O)[C@@H]2CC[C@H]2CN2C[C@@]3(CCCc4cc(Cl)ccc43)COc3ccc1cc32` [Example 341, (1S,3′R,6′R,7′S,8′E)-6-chloro-7′-hydroxy-3,4-dihydro-2H,13′H-spiro[naphthalene-1,20′-[18]oxa[11]thia[1,12]diazatetracyclo[12.7.2.0^3,6.0^17,22]tricosa[8,14,16,22]tetraen]-13′-one 11′,11′-dioxide], the IC50 rises from 2.69 nM to 7.07 nM (2.6-fold).

Compared with `CO[C@@H]1/C=C/CCS(=O)(=O)NC(=O)c2ccc3c(c2)N(C[C@@H]2CC[C@H]21)C[C@@]1(CCCc2cc(Cl)ccc21)CO3` [Example 225, (1S,3′R,6′R,7′R,8′E)-6-chloro-7′-methoxy-3,4-dihydro-2H,14′H-spiro[naphthalene-1,21′-[19]oxa[12]thia[1,13]diazatetracyclo[13.7.2.0^3,6.0^18,23]tetracosa [8,15,17,23]tetraen]-14′-one 12′,12′-dioxide], `COC[C@@H]1CC/C=C/[C@H](OC)[C@@H]2CC[C@H]2CN2C[C@@]3(CCCc4cc(Cl)ccc43)COc3ccc(cc32)C(=O)NS1(=O)=O` [Example 444, (1S,3′R,6′R,7′S,8′E,12′S)-6-chloro-7′-methoxy-12′-(methoxymethyl)-3,4-dihydro-2H,15′H-spiro[naphthalene-1,22′-[20]oxa[13]thia[1,14]diazatetracyclo[14.7.2.0^3,6.0^19,24]pentacosa [8,16,18,24]tetraen]-15′-one 13′,13′-dioxide] is 29-fold lower in IC50: 23.1 nM for the first, 0.785 nM for the second.

`CO[C@@H]1CCCCS(=O)(=O)NC(=O)c2ccc3c(c2)N(C[C@@H]2CC[C@H]21)C[C@@]1(CCCc2cc(Cl)ccc21)CO3` [Example 226] and `CO[C@@H]1CCCCCCS(=O)(=O)NC(=O)c2ccc3c(c2)N(C[C@@H]2CC[C@H]21)C[C@@]1(CCCc2cc(Cl)ccc21)CO3` [Example 230, (1S,3′R,6′R,7′R)-6-chloro-7′-methoxy-3,4-dihydro-2H,16′H-spiro[naphthalene-1,23′-[21]oxa[14]thia[1,15]diazatetracyclo[15.7.2.0^3,6.0^20,25]hexacosa[17,19,25]trien]-16′-one 14′,14′-dioxide] are within 1.5-fold of each other in IC50: 25.6 nM for the first, 32.3 nM for the second.

`O=C1NS(=O)(=O)CCC[C@H](O)[C@@H]2CC[C@H]2CN2C[C@@]3(CCCc4cc(Cl)ccc43)COc3ccc1cc32` [Example 342, (1S,3′R,6′R,7′S)-6-chloro-7′-hydroxy-3,4-dihydro-2H,13′H-spiro[naphthalene-1,20′-[18]oxa[11]thia[1,12]diazatetracyclo[12.7.2.0^3,6.0^17,22]tricosa[14,16,22]trien]-13′-one 11′,11′-dioxide] and `O=C1CCCS(=O)(=O)NC(=O)c2ccc3c(c2)N(C[C@@H]2CC[C@H]2CN1)C[C@@]1(CCCc2cc(Cl)ccc21)CO3` [Example 370, (1S,3′R,6′R)-6-chloro-3,4-dihydro-2H,9′H,15′H-spiro[naphthalene-1,22′-[20]oxa[13]thia[1,8,14]triazatetracyclo[14.7.2.0^3,6.0^19,24]pentacosa[16,18,24]triene]-9′,15′-dione 13′,13′-dioxide] are within 1.5-fold of each other in IC50: 5 nM for the first, 4.5 nM for the second.

`CNC(=O)CO[C@H]1/C=C/CC[C@@H](C)S(=O)(=O)NC(=O)c2ccc3c(c2)N(C[C@@H]2CC[C@H]21)C[C@@]1(CCCc2cc(Cl)ccc21)CO3` [Example 404, 2-(((1S,3′R,6′R,7′S,8′E,12′R)-6-chloro-12′-methyl-13′,13′-dioxido-15′-oxo-3,4-dihydro-2H-spiro[naphthalene-1,22′-[20]oxa[13]thia[1,14]diazatetracyclo[14.7.2.0^3,6.0^19,24]pentacosa [8,16,18,24]tetraen]-7′-yl)oxy)-N-methylacetamide] and `C[C@@H]1CC/C=C/[C@H](OCC(=O)N(C)C)[C@@H]2CC[C@H]2CN2C[C@@]3(CCCc4cc(Cl)ccc43)COc3ccc(cc32)C(=O)NS1(=O)=O` [Example 420, 2-(((1S,3′R,6′R,7′S,8′E,12′R)-6-chloro-12′-methyl-13′,13′-dioxido-15′-oxo-3,4-dihydro-2H-spiro[naphthalene-1,22′-[20]oxa[13]thia[1,14]diazatetracyclo[14.7.2.0^3,6.0^19,24]pentacosa [8,16,18,24]tetraen]-7′-yl)oxy)-N,N-dimethylacetamide] are within 1.5-fold of each other in IC50: 0.442 nM for the first, 0.349 nM for the second.

`C[C@@H]1CC/C=C/[C@H](OCCS(C)(=O)=O)[C@@H]2CC[C@H]2CN2C[C@@]3(CCCc4cc(Cl)ccc43)COc3ccc(cc32)C(=O)NS1(=O)=O` [Example 406, (1S,3′R,6′R,7′S,8′E,12′R)-6-chloro-12′-methyl-7′-(2-(methylsulfonyl)ethoxy)-3,4-dihydro-2H,15′H-spiro[naphthalene-1,22′-[20]oxa[13]thia[1,14]diazatetracyclo[14.7.2.0^3,6.0^19,24]pentacosa [8,16,18,24]tetraen]-15′-one 13′,13′-dioxide] and `CC[C@@H]1CC/C=C/[C@H](OCC(=O)NC(C)C)[C@@H]2CC[C@H]2CN2C[C@@]3(CCCc4cc(Cl)ccc43)COc3ccc(cc32)C(=O)NS1(=O)=O` [Example 422, 2-(((1S,3′R,6′R,7′S,8′E,12′R)-6-chloro-12′-ethyl-13′,13′-dioxido-15′-oxo-3,4-dihydro-2H-spiro[naphthalene-1,22′-[20]oxa[13]thia[1,14]diazatetracyclo[14.7.2.0^3,6.0^19,24]pentacosa [8,16,18,24]tetraen]-7′-yl)oxy)-N-(1-methylethyl)acetamide] are within 1.5-fold of each other in IC50: 0.602 nM for the first, 0.865 nM for the second.

Same assay, conditions: cell free Mcl-1:Bim TR-FRET, recombinant human Mcl-1 (171-327)

First: O=C1NS(=O)(=O)CC/C=C/CC[C@@H]2CC[C@H]2CN2C[C@@]3(CCCc4cc(Cl)ccc43)COc3ccc1cc32 [Example 496, (1S,3′R,6′R,9′E)-6-chloro-3,4-dihydro-2H,15′H-spiro[naphthalene-1,22′-[20]oxa[13]thia[1,14]diazatetracyclo[14.7.2.0^3,6.0^19,24]pentacosa [10,16,18,24]tetraen]-15′-one 13′,13′-dioxide]
Second: O=C1NS(=O)(=O)CC/C=C\CC[C@@H]2CC[C@H]2CN2C[C@@]3(CCCc4cc(Cl)ccc43)COc3ccc1cc32 [Example 499, (1S,3′R,6′R,9′Z)-6-chloro-3,4-dihydro-2H,15′H-spiro[naphthalene-1,22′-[20]oxa[13]thia[1,14]diazatetracyclo[14.7.2.0^3,6.0^19,24]pentacosa [9,16,18,24]tetraen]-15′-one 13′,13′-dioxide]
The IC50 of the first is 3.8-fold lower: 6.33 nM for the first, 24 nM for the second.

With `CC[C@@H]1CCCCC[C@H](O)[C@@H]2CC[C@H]2CN2C[C@@]3(CCCc4cc(Cl)ccc43)COc3ccc(cc32)C(=O)NS1(=O)=O` [Example 554, (1S,3′R,6′R,7′S,13′R)-6-chloro-13′-ethyl-7′-hydroxy-3,4-dihydro-2H,16′H-spiro[naphthalene-1,23′-[21]oxa[14]thia[1,15]diazatetracyclo[15.7.2.0^3,6.0^20,25]hexacosa[17,19,25]trien]-16′-one 14′,14′-dioxide] the IC50 was 1.83 nM.
